The source of these data is US10730872B2, “Pesticidally active heterocyclic derivatives with sulphur containing sustitutents” (SYNGENTA PARTICIPATIONS AG, priority 2015, dated 2020).

Each structure is given as a SMILES string.

For orientation: mortality means the percentage killed.

Holding throughout (type): in vivo
One assay relates to Spodoptera littoralis. Briefly: Spodoptera littoralis (Egyptian Cotton Leaf Worm), sprayed cotton leaf discs. As to conditions: foliar, 72 h, application rate of 200 ppm, L1 larvae, 3 days after infestation. On the procedure: Cotton leaf discs were placed onto agar in 24-well microtiter plates and sprayed with aqueous test solutions prepared from 10,000 ppm DMSO stock solutions. After drying the leaf discs were infested with five L1 larvae. The samples were assessed for mortality, anti-feeding effect, and growth inhibition in comparison to untreated samples 3 days after infestation. Control of Spodoptera littoralis by a test sample is given when at least one of the categories mortality, anti-feedant effect, and growth inhibition is higher than the untreated sample.

Another assay concerns Euschistus heros. Briefly: Euschistus heros (Neotropical Brown Stink Bug). As to conditions: 120 h, application rate of 200 ppm, sprayed soybean leaves, N2 nymphs, 5 days after infestation, read-out: effect in at least one of the two categories (mortality or growth inhibition). On the procedure:
Soybean leaves on agar in 24-well microtiter plates were sprayed with aqueous test solutions prepared from 10,000 ppm DMSO stock solutions. After drying the leaves were infested with N2 nymphs. The samples were assessed for mortality and growth inhibition in comparison to untreated samples 5 days after infestation.

The subject of the next assay is Plutella xylostella. Briefly: Plutella xylostella (Diamond Back Moth). The note with it: 120 h, application rate of 200 ppm, artificial diet, L2 larvae, 5 days after infestation, read-out: effect in at least one of the two categories (mortality or growth inhibition). On the procedure: 24-well microtiter plates with artificial diet were treated with aqueous test solutions prepared from 10,000 ppm DMSO stock solutions by pipetting. After drying, the plates were infested with L2 larvae (10 to 15 per well). The samples were assessed for mortality and growth inhibition in comparison to untreated samples 5 days after infestation.

The subject of a further assay is Diabrotica balteata. Kind of assay: Diabrotica balteata (Corn Root Worm). As to conditions: 96 h, application rate of 200 ppm, sprayed maize sprouts, L2 larvae, 4 days after infestation, read-out: effect in at least one of the two categories (mortality or growth inhibition). On the procedure: Maize sprouts placed onto an agar layer in 24-well microtiter plates were treated with aqueous test solutions prepared from 10,000 ppm DMSO stock solutions by spraying. After drying, the plates were infested with L2 larvae (6 to 10 per well). The samples were assessed for mortality and growth inhibition in comparison to untreated samples 4 days after infestation.

Another assay relates to Myzus persicae. Kind of assay: Myzus persicae (Green Peach Aphid): Feeding/Contact Activity. The note with it: foliar, 144 h, application rate of 200 ppm, sprayed sunflower leaf discs, aphid population of mixed ages, 6 days after infestation. On the procedure: Sunflower leaf discs were placed onto agar in a 24-well microtiter plate and sprayed with aqueous test solutions prepared from 10,000 ppm DMSO stock solutions. After drying, the leaf discs were infested with an aphid population of mixed ages. The samples were assessed for mortality 6 days after infestation.

`CCn1c(C(F)(F)F)cc2nc(-c3ncc(C(=O)NC4(C#N)CC4)cc3S(=O)(=O)CC)n(C)c2c1=O` [Compound A25, N-(1-cyanocyclopropyl)-6-[5-ethyl-3-methyl-4-oxo-6-(trifluoromethyl)imidazo[4,5-c]pyridin-2-yl]-5-ethylsulfonyl-pyridine-3-carboxamide] had a percent control (mortality, anti-feeding effect or growth inhibition) at 200 ppm with Spodoptera littoralis of at least 80%. In addition, the percent effect (mortality or growth inhibition) at 200 ppm in the assay on Euschistus heros was at least 80%.
On to `CCn1c(C(F)(F)F)cc2nc(-c3ncc(N(C)/C=N/OC)cc3S(=O)(=O)CC)n(C)c2c1=O` [Compound A27, N-[6-[5-ethyl-3-methyl-4-oxo-6-(trifluoromethyl)imidazo[4,5-c]pyridin-2-yl]-5-ethylsulfonyl-3-pyridyl]-N′-methoxy-N-methyl-formamidine], for which, in the assay with Plutella xylostella, the percent effect (mortality or growth inhibition) at 200 ppm is at least 80%. This compound registered a percent control (mortality, anti-feeding effect or growth inhibition) at 200 ppm in the assay with Spodoptera littoralis of at least 80%.
`CCn1c(C(F)(F)F)cc2nc(-c3nc(N(C)CC(F)(F)F)ccc3S(=O)(=O)CC)n(C)c2c1=O` [Compound A33]: in the assay with Diabrotica balteata, the effect mortality or growth inhibition at 200 ppm was at least 80%. The percent effect (mortality or growth inhibition) at 200 ppm in the assay with Plutella xylostella is at least 80%. In the assay on Spodoptera littoralis, this compound registered a percent control (mortality, anti-feeding effect or growth inhibition) at 200 ppm of at least 80%.
`CCn1c(C(F)(F)F)cc2nc(-c3ncc(NS(=O)(=O)C4CC4)cc3S(=O)(=O)CC)n(C)c2c1=O` [Compound A36, N-[6-[5-ethyl-3-methyl-4-oxo-6-(trifluoromethyl)imidazo[4,5-c]pyridin-2-yl]-5-ethylsulfonyl-3-pyridyl]cyclopropanesulfonamide] returned a mortality at 200 ppm with Myzus persicae of at least 80%.
As for `CCS(=O)(=O)c1ccc(NOC)nc1-c1nc2cc(C(F)(F)F)n(C3CC3)c(=O)c2n1C` [Compound A46, 5-cyclopropyl-2-[3-ethylsulfonyl-6-(methoxyamino)-2-pyridyl]-3-methyl-6-(trifluoromethyl)imidazo[4,5-c]pyridin-4-one], the effect mortality or growth inhibition at 200 ppm with Diabrotica balteata is at least 80%. In addition, the percent effect (mortality or growth inhibition) at 200 ppm with Plutella xylostella and in the assay on Euschistus heros was at least 80% each time. Also, the percent control (mortality, anti-feeding effect or growth inhibition) at 200 ppm in the assay with Spodoptera littoralis is at least 80%.
For `CCn1c(C(F)(F)F)cc2nc(-c3nc(Br)c(N)cc3S(=O)(=O)CC)n(C)c2c1=O` [Compound A54, 2-(5-amino-6-bromo-3-ethylsulfonyl-2-pyridyl)-5-ethyl-3-methyl-6-(trifluoromethyl)imidazo[4,5-c]pyridin-4-one], in the assay with Diabrotica balteata, the effect mortality or growth inhibition at 200 ppm is at least 80%. Further, in the assay with Plutella xylostella, the percent effect (mortality or growth inhibition) at 200 ppm was at least 80%. This compound also gave a percent control (mortality, anti-feeding effect or growth inhibition) at 200 ppm in the assay with Spodoptera littoralis of at least 80%.
In the case of `CCn1c(C(F)(F)F)cc2nc(-c3ncc(NC4(C#N)CC4)cc3[S+]([O-])CC)n(C)c2c1=O` (centres unmarked) [Compound A57, 1-[[6-[5-ethyl-3-methyl-4-oxo-6-(trifluoromethyl)imidazo[4,5-c]pyridin-2-yl]-5-ethylsulfinyl-3-pyridyl]amino]cyclopropanecarbonitrile], in the assay on Diabrotica balteata, the effect mortality or growth inhibition at 200 ppm was at least 80%. Moreover, in the assay on Plutella xylostella, the percent effect (mortality or growth inhibition) at 200 ppm is at least 80%. For the same compound, in the assay on Spodoptera littoralis, the percent control (mortality, anti-feeding effect or growth inhibition) at 200 ppm is at least 80%.
On to `CCn1c(C(F)(F)F)cc2nc(-c3ncc(NC4CC4)cc3[S+]([O-])CC)n(C)c2c1=O` (centres unmarked) [Compound A58, 2-[5-(cyclopropylamino)-3-ethylsulfinyl-2-pyridyl]-5-ethyl-3-methyl-6-(trifluoromethyl)imidazo[4,5-c]pyridin-4-one], for which the effect mortality or growth inhibition at 200 ppm in the assay with Diabrotica balteata is at least 80%.
For the compound `CCn1c(C(F)(F)F)cc2nc(-c3nc(C(C)=O)ccc3S(=O)(=O)CC)n(C)c2c1=O` [Compound A70, 2-(6-acetyl-3-ethylsulfonyl-2-pyridyl)-5-ethyl-3-methyl-6-(trifluoromethyl)imidazo[4,5-c]pyridin-4-one], the percent effect (mortality or growth inhibition) at 200 ppm in the assay with Plutella xylostella is at least 80%.
